# Tests used:
# VTC-034 GSCs = test: Caspase 3/7 activity, VTC-034 GSCs; assay type: cell-based, human; conditions: VTC-034 adherent GSCs, 10, 50 or 100 μM, 48 h, Caspase-Glo 3/7
# Protocol: (§1) Cells were plated in 96-well plates (2000–5000 cells per well) and treated the following day with TMZ (10, 50, or 100 μM), antennapedia, JM2-scrambled, or JM2 (10, 50, or 100 μM). After 4 days, cell viability was monitored following addition of MTS reagent (Promega) according to manufacturer’s instructions. The absorbance at 490 nm was measured using a SpectraMax i3 or iD3 microplate reader (Molecular Devices). For the caspase 3/7 activity assay, cells were plated in 96-well plates (2000 cells per well) and treated with TMZ or peptides as described above. The activity of caspase 3/7 was measured after 48 h using the Caspase-Glo® 3/7 assay (Promega) following the manufacturer’s instructions. Fold change of caspase 3/7 activity was defined as the ratio of caspase 3/7 luminescence in treated cells compared to controls.
# [1] = test system: newly diagnosed GBM patients; conditions: surgical resection, radiotherapy, and chemotherapy with temozolomide, ref [1]-[3]; cited from earlier work
# Excerpt: Glioblastoma (GBM) is a highly malignant and lethal cancer of the central nervous system. The current multimodal therapy for newly diagnosed GBM patients includes surgical resection, radiotherapy, and chemotherapy with temozolomide (TMZ), conferring a median survival of only 14.6 months, with recent results from phase 3 clinical trials showing an extension up to 20 months, although using more stringent inclusion criteria that limit generalizability.
# VTC-037 GSCs = test: MTS viability, VTC-037 GSCs; assay type: cell-based, human; conditions: VTC-037 adherent GSCs, TMZ 50 μM, 4 days
# Protocol: as §1
# VTC-001 GSCs = test: MTS viability, VTC-001 GSCs; assay type: cell-based, human; conditions: VTC-001 adherent GSCs, TMZ 50 μM, 4 days
# Protocol: as §1
smiles,measurement,setting,value
"Cn1nnc2c(C(N)=O)ncn2c1=O [TMZ, temozolomide, reference compound]",Apoptosis induction (caspase 3/7 activity),VTC-034 GSCs,inefficient in inducing apoptosis
same,Median survival,[1],14.6 months
same,GSC viability with TMZ alone (MTS),VTC-037 GSCs,resistant to TMZ treatment
same,GSC viability with TMZ alone (MTS),VTC-001 GSCs,resistant to TMZ treatment

# Source: PMC12084297, “Cytoplasmic connexin43-microtubule interactions promote glioblastoma stem-like cell maintenance and tumorigenicity” (Cell Death & Disease, 2025)
